Measurements: ChEMBL document CHEMBL2390918, “Cinnamides as selective small-molecule inhibitors of a cellular model of breast cancer stem cells” (Bioorg Med Chem Lett, 2013)
pEC50, pIC50, pKi: −log10 of the molar value. In brackets after ≈: the same amount, converted by molar mass.

Tests used:
[1] = target: B1 bradykinin receptor (Homo sapiens) (UniProt P46663); test: Displacement of [3H](Des-Arg10)-Kallidin from bradykinin B1 receptor in human IMR90 cells at 10 uM after 60 mins relative to control; assay type: cell-based; details: IMR-90
B1 bradykinin receptor (Homo sapiens), sequence (P46663 whole entry): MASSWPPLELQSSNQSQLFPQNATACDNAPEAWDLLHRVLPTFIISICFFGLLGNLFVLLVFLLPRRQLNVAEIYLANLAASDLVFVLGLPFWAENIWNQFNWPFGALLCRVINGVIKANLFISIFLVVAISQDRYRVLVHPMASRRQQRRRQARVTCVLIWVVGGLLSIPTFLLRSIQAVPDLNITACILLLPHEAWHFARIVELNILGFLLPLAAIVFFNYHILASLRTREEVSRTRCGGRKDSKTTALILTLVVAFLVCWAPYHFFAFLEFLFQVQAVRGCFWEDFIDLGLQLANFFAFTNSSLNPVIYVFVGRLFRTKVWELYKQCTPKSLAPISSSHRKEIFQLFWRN

[2] = target: Adenosine receptor A3 (Homo sapiens) (UniProt P0DMS8); details: CHO-K1, 10 uM
Adenosine receptor A3 (Homo sapiens), sequence (P0DMS8 whole entry): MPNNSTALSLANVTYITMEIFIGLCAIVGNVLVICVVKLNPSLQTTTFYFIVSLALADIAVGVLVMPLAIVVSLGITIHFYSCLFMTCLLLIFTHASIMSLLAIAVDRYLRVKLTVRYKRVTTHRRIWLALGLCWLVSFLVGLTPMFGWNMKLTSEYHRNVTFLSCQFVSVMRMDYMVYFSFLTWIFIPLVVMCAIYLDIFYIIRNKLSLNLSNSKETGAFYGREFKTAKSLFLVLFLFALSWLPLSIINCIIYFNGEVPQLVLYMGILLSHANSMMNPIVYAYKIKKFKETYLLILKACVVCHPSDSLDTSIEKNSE

[3] = Chemical stability in DMSO after 48 hrs; assay type: physicochemical; details: read-out: Stability
[4] = Chemical stability of the compound after 48 hrs in presence of GSH; assay type: physicochemical; details: read-out: Stability
[5] = Metabolic stability in human plasma after 5 hrs; assay type: ADME, cell-free; details: read-out: Stability
[6] = Chemical stability of the compound in PBS after 48 hrs at pH 7.4 by UPLC/MS analysis; assay type: physicochemical; details: read-out: Stability
[7] = Solubility in PBS at 100 uM after 24 hrs at pH 7.4 by UPLC-MS analysis; assay type: physicochemical
[8] = Plasma protein binding in human; assay type: ADME, cell-free; details: read-out: PPB (converted)
[9] = Selectivity ratio of EC50 for human HMLE cells expressing shRNA and GFP to EC50 for human CSC-like HMLE cells expressing shRNA and epithelial cadherin; assay type: ADME, cell-based; details: read-out: Ratio EC50
[10] = Cytotoxicity against human HMLE cells expressing shRNA and GFP after 70 to 74 hrs by Cell Titer Glo assay; assay type: cell-based
[11] = Cytotoxicity against human CSC-like HMLE cells expressing shRNA and epithelial cadherin after 70 to 74 hrs by Cell Titer Glo assay; assay type: functional, cell-based
[12] = target: Adenosine receptor A1 (Homo sapiens) (UniProt P30542); details: CHO, 10 uM
Adenosine receptor A1 (Homo sapiens), sequence (P30542 whole entry): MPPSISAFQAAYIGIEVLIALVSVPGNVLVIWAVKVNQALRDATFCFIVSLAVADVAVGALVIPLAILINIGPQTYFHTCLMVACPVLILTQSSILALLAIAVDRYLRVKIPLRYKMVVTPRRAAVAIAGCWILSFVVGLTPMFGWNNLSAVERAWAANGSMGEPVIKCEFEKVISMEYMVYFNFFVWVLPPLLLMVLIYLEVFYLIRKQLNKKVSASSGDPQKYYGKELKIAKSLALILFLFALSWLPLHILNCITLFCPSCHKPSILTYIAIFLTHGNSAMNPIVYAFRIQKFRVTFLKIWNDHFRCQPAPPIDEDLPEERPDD

[13] = Displacement of [125I]omega-Conotoxin GVIA from N-type calcium channel in Wistar rat frontal brain after 30 mins
Rattus norvegicus [14] = species on record: Rattus norvegicus; test: Displacement of [125I]omega-Conotoxin GVIA from N-type calcium channel in Wistar rat frontal brain at 10 uM after 30 mins relative to control
[15] = target: Muscarinic acetylcholine receptor M1 (Homo sapiens, UniProt P11229); test: Displacement of [3H]N-methylscopolamine from human recombinant muscarinic M1 receptor expressed in CHOK1 cells after 2 hrs; assay type: cell-based, CHO-K1
Muscarinic acetylcholine receptor M1, sequence (P11229 whole entry): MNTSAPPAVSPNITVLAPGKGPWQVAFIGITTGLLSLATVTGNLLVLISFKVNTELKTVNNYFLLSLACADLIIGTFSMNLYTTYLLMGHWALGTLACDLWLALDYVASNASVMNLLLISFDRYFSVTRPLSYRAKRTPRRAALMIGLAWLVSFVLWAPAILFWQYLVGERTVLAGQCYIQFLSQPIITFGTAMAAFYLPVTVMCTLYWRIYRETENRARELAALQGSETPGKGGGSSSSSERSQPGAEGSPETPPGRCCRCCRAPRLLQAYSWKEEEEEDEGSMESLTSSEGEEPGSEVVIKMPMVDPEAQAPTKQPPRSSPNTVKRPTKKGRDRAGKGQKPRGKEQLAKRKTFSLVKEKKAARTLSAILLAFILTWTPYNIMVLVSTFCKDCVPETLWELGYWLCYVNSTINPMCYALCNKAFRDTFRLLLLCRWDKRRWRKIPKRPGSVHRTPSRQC

[16] = target: Muscarinic acetylcholine receptor M1 (Homo sapiens) (UniProt P11229); test: Displacement of [3H]N-methylscopolamine from human recombinant muscarinic M1 receptor expressed in CHOK1 cells at 10 uM after 2 hrs relative to control; assay type: cell-based; details: CHO-K1
Muscarinic acetylcholine receptor M1 (Homo sapiens), sequence (P11229 whole entry): as above

[17] = target: Muscarinic acetylcholine receptor M3 (Homo sapiens) (UniProt P20309); details: CHO-K1, 10 uM
Muscarinic acetylcholine receptor M3 (Homo sapiens), sequence (P20309 whole entry, looked up): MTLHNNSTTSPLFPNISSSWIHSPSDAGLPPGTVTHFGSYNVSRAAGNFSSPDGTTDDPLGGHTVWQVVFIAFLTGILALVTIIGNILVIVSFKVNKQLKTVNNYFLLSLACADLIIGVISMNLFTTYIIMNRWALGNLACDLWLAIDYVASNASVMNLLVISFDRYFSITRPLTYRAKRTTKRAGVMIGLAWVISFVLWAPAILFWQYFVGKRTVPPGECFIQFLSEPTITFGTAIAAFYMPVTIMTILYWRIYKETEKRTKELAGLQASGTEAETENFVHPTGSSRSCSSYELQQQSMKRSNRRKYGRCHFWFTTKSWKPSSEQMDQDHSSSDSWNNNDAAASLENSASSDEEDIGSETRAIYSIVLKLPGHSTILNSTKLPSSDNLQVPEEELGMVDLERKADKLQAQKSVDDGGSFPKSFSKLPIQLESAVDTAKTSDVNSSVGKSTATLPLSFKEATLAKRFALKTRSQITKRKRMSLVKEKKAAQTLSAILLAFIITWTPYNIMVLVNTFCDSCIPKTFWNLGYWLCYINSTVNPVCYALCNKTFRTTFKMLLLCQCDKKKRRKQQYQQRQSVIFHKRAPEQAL

[18] = target: Muscarinic acetylcholine receptor M2 (Homo sapiens) (UniProt P08172); details: CHO-K1, 10 uM
Muscarinic acetylcholine receptor M2 (Homo sapiens), sequence (P08172 whole entry): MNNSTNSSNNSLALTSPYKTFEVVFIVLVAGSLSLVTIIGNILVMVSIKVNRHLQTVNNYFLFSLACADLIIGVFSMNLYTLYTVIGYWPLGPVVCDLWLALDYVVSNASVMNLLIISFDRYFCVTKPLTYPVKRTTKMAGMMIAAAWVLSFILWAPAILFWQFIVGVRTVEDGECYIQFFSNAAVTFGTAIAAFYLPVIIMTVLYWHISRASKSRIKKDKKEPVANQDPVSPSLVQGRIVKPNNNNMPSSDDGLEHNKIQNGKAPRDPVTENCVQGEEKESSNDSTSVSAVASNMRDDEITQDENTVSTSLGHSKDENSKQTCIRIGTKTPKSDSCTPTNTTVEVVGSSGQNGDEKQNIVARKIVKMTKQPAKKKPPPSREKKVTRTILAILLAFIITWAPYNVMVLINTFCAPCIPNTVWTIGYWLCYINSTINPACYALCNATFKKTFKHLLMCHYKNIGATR

[19] = target: B2 bradykinin receptor (Homo sapiens) (UniProt P30411); details: CHEM1, 10 uM
B2 bradykinin receptor (Homo sapiens), sequence (P30411 whole entry): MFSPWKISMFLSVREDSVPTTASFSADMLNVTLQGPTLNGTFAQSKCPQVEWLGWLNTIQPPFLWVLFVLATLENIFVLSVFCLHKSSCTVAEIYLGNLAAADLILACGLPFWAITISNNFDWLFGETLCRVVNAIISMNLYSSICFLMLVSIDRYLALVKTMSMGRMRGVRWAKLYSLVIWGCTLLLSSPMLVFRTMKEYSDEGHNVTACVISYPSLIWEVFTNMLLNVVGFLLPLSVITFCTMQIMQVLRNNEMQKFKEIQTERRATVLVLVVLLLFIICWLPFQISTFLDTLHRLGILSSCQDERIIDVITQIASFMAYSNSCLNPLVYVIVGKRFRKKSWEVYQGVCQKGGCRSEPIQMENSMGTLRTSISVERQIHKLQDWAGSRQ

[20] = Displacement of [3H]Nitrendipine from L-type calcium channel dihydropyridine binding site in Wistar rat cerebral cortex after 90 mins; assay type: tissue-based
Rattus norvegicus [21] = species on record: Rattus norvegicus; test: Displacement of [3H]Nitrendipine from L-type calcium channel dihydropyridine binding site in Wistar rat cerebral cortex at 10 uM after 90 mins relative to control; assay type: tissue-based

**Q.** For `NCCCC[C@H](N)C(=O)N[C@@H](CCCN=C(N)N)C(=O)N1CCC[C@H]1C(=O)N1CCC[C@H]1C(=O)NCC(=O)N[C@@H](Cc1ccccc1)C(=O)N[C@@H](CO)C(=O)N1CCC[C@H]1C(=O)N[C@@H](Cc1ccccc1)C(=O)O`, which inhibition [1] is on record?
**A.** 8%

**Q.** Which inhibition [2] does the source give for `CNC(=O)[C@H]1O[C@@H](n2cnc3c(NCc4cccc(I)c4)ncnc32)[C@H](O)[C@@H]1O` here?
**A.** 22%

**Q.** For `CCc1ccc(/C=C/C(=O)NC2=NCCS2)cc1`, which remaining at 48 h [3] is on record?
**A.** > 75%

**Q.** What about the remaining at 48 h [4] of the same compound?
**A.** 82%

**Q.** And the remaining at 5 h [5]?
**A.** 97.1%

**Q.** And the remaining at 48 h [6]?
**A.** 75%

**Q.** And the solubility at 24 h, 100 µM [7]?
**A.** 11.5 µM (≈ 2.99 µg/mL)

**Q.** What about the fraction unbound [8] of the same compound?
**A.** 0.034

**Q.** And the selectivity ratio [9]?
**A.** 32

**Q.** What about the pEC50 [10] of the same compound?
**A.** 4.19

**Q.** What about the pEC50 [11] of the same compound?
**A.** 5.70

**Q.** For `C[C@H](Cc1ccccc1)Nc1ncnc2c1ncn2[C@@H]1O[C@H](CO)[C@@H](O)[C@H]1O`, which inhibition [12] is on record?
**A.** 25%

**Q.** With `C[C@@H](O)[C@@H]1NC(=O)[C@H](Cc2ccc(O)cc2)NC(=O)[C@@H]2C[C@@H](O)CN2C(=O)[C@H](CC(N)=O)NC(=O)[C@@H]2CSSC[C@@H]3NC(=O)[C@H](CO)NC(=O)[C@H](CO)NC(=O)CNC(=O)[C@@H]4C[C@@H](O)CN4C(=O)[C@H](CO)NC(=O)[C@H](CCCCN)NC(=O)[C@@H](N)CSSC[C@H](NC(=O)[C@H](CSSC[C@@H](C(=O)N[C@@H](Cc4ccc(O)cc4)C(N)=O)NC(=O)[C@H](CCCNC(=N)N)NC(=O)[C@H](CCCCN)NC1=O)NC(=O)[C@H](CC(N)=O)NC(=O)[C@H](Cc1ccc(O)cc1)NC(=O)[C@H](CO)NC(=O)[C@H]([C@@H](C)O)NC(=O)[C@@H]1C[C@@H](O)CN1C(=O)[C@H](CO)NC3=O)C(=O)N[C@@H](CCCNC(=N)N)C(=O)N[C@@H](CO)C(=O)N2` as the compound, how does the pIC50 [13] read?
**A.** 10.47

**Q.** And the pKi [13]?
**A.** 10.55

**Q.** What about the inhibition (Rattus norvegicus [14]) of the same compound?
**A.** 14%

**Q.** What does the source list for `C[N+]1(C)CCC(OC(=O)C(c2ccccc2)c2ccccc2)CC1` [4-DAMP]?
**A.** pIC50 [15]: 8.35; inhibition [16]: 5%; inhibition [17]: -4%; inhibition [18]: -2%

**Q.** Which inhibition [19] does the source give for H-RPPGFSPFR-OH here?
**A.** 4%

**Q.** With `CCOC(=O)C1=C(C)NC(C)=C(C(=O)OC)C1c1cccc([N+](=O)[O-])c1` (stereo not drawn) [NITRENDIPINE] as the compound, how does the pIC50 [20] read?
**A.** 9.14

**Q.** What about the pKi [20] of the same compound?
**A.** 9.34

**Q.** What about the inhibition (Rattus norvegicus [21]) of the same compound?
**A.** -6%
